Experimental data published in US20240124467A1, “FUSED PYRIMIDINE COMPOUNDS AS INHIBITORS OF MENIN-MLL INTERACTION” (Biomea Fusion, Inc., priority 2020, published 2024).
Where two headings read alike, the source gives them in different places.

Key:
Type in all cases: cell-based
[1] = system: MV4-11; test: Cell proliferation inhibition (CellTiter-Glo), MV4-11 cells; settings: Homo sapiens, MV4-11 (MLL-AF4), Table 3
Method in brief: (§1)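 Leukemia lines in RPMI-1640/10% FBS at 37° C. were exposed in duplicate to seven compound concentrations (5.00×10^−6 to 6.86×10^−9 M), with 0.2% DMSO as 100% proliferation. At day 4 cells were diluted 1:4 in fresh medium containing compound. Viability was read by CellTiter-Glo luminescence at day 4 and day 7.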

[2] = system: MOLM-13; test: Cell proliferation inhibition (CellTiter-Glo), MOLM-13 cells; settings: Homo sapiens, MOLM-13 (MLL-AF9), Table 3
Method in brief: as §1

[3] = system: U-937; test: Cell proliferation inhibition (CellTiter-Glo), U-937 cells; settings: Homo sapiens, U-937 (MLL-wt), Table 3
Procedure: (§2) The present example evaluates the ability of compounds described herein, inhibitors of Menin/MLL interaction, to inhibit cell proliferation. The proliferation inhibitory effect was investigated in human MLL-leukemia cells selected on the bases of MLL fusion proteins and listed in the table below.
(§3) ATP is present in all metabolically active cells and is considered as a marker for cell viability and proliferation. The metabolic cell activity was determined using the CellTiter-Glo kit from Promega, an ATP monitoring system based on the production of luminescence by the reaction of ATP with added UltraGlo® recombinant luciferase (Kawano et al., 2016, PLOS One, 8:11(7):e0158888), according to the supplier's experimental recommendations. The assay is based on a 96 well plate format. All experiments were carried out in duplicate in one test occasion.
(§4) Test items were dissolved at 20 mM in DMSO with purity ≥99.9% (Sigma catalog no. D8418) and stored at −20° C. Cells were maintained in RPMI-1640 medium (Invitrogen catalog no. 618700) supplemented with 10% of Heat Inactivated FBS (Invitrogen catalog no. 10500) and 1% Pen-Strep (Invitrogen catalog no. 15140) and cultured at 37° C. in a humidified incubator with 5% CO2. Cell lines were grown in suspension and the cell density was maintained in a range of 5×10^4-1×10^6 viable cells/ml where possible. Cells were pelleted at 130 g×5 min.
(§5) Serial dilutions of compounds 1 to 3 in DMSO 100% were prepared starting from a 2.5 mM solutions (prepared by diluting 1:8 the 20 mM stock solution) to generate a 7 point concentration response curve (CRC). Seven concentrations of test compounds (e.g., 5.00×10^−6-1.67×10^−6-5.56×10^−7-1.85×10^−7-6.17×10^−8-2.06×10^−8-6.86×10^−9 M) were assessed in duplicate in an individual test occasion in parallel in the selected cell lines. KO-539 was used as a reference compound and tested in duplicate at seven similar concentrations. 100% of proliferation was represented by the untreated cells (0.2% DMSO).
(§6) Cell proliferation inhibition was monitored at both the following end points: Day 4 (T4) and Day 7 (T7). For the appropriate cell density during the exponential cell growth and re-supply with fresh compound solution at T4, cells were diluted (1:4) with fresh medium containing the compound concentration (1×).
(§7) For each plate to test, one 0.4 μL copy plate and four 0.3 μL copy plates were stamped into 96-well plates not treated for cell adhesion (Sarstedt—cat. no. 82.1581.001) by acoustic liquid handling (Echo) at a concentration which was 500 fold the final assay concentration. Stamped plates were stored at −20° C.
(§8) On Day 0, the day of the experiment cell line suspensions were counted by Cell Viability Analyser, Vi-CELL (Beckman Coulter AY15292), and diluted with fresh medium to obtain the following cell densities: K-562 500 c/ml, MOLM-13 1,000 c/ml, MV4-11 10,000 c/ml, OCI-AML-3 500 c/ml, and U-937 500-1,000 c/ml. 200 μL/well and 150 μL/well of cell suspension were added into the 0.4 μL/well and 0.3 μL/well compound plates, respectively. Cell plate containing 200 μL/well suspension were incubated at 37° C. in a humidified incubator with 5% CO2. From each well of the 150 μL/well cell assay plate, 100 μL were harvested and transferred into a 96-well Optiplate (Perkin Elmer, cat. no. 6005290). Cell viability was measured as described below.
(§9) On Day 4, 150p/well of fresh medium was added into a new 0.3 μL/well copy compound plates. From each well of the 200 μL/well cell assay plate, 100 μL was sampled for the cell viability measurement as described below. 50p was harvested and added to the 150p/well compound plate prepared as described in the first point to dilute 1:4 the cell suspension. The cell assay plate diluted and containing 200 μL/well suspension was incubated at 37° C. in a humidified incubator with 5% CO2.
(§10) On Day 4, 150p/well of fresh medium was added into a new 0.3 μL/well copy compound plates. […]

[4] = system: K-562; test: Cell proliferation inhibition (CellTiter-Glo), K-562 cells; settings: Homo sapiens, K-562 (BCR-ABL), Table 3
Method in brief: as §1

[5] = system: OCI-AML3; test: Cell proliferation inhibition (CellTiter-Glo), OCI-AML3 cells; settings: Homo sapiens
Procedure: as §2, §3, §4, §5, §6, §7, §8, §9, §10

[6] = 96 h, 4 d, read-out: MV4-11 IC50 μM 4 d
[7] = 168 h, 7 d, read-out: MV4-11 IC50 μM 7 d
[8] = 96 h, 4 d, read-out: MOLM13 μM 4 d
[9] = 168 h, 7 d, read-out: MOLM13 μM 7 d
[10] = 96 h, 4 d, read-out: U-937 IC50 μM 4 d
[11] = 168 h, 7 d, read-out: U-937 IC50 μM 7 d
[12] = K562, 96 h, 4 d, read-out: K-562 IC50 μM 4 d
[13] = K562, 168 h, 7 d, read-out: K-562 IC50 μM 7 d
[14] = OCI-AML-3, 96 h, 4 d, Table 3, read-out: OCI-AML3 IC50 μM 4 d
[15] = OCI-AML-3, 168 h, 7 d, Table 3, read-out: OCI-AML3 IC50 μM 7 d

IC50 [1, 6] [µM] | IC50 [1, 7] [µM] | IC50 [2, 8] [nM] | IC50 [2, 9] [nM] | IC50 [3, 10] [µM] | IC50 [3, 11] [µM] | IC50 [4, 12] [µM] | IC50 [4, 13] [µM] | IC50 [5, 14] [µM] | IC50 [5, 15] [µM] | SMILES
> 5 | > 5 | > 5000 | 3310 | > 5 | 1.26 | > 5 | 0.288 | > 5 | 0.407 | C=CC(=O)Nc1ccc(CC(=O)Nc2ccc(-c3cc4c(C)ncnc4[nH]3)cc2)cc1 [Compound B0700-313, N-(4-(2-((4-(4-methyl-7H-pyrrolo[2,3-d]pyrimidin-6-yl)phenyl)amino)-2-oxoethyl)phenyl)acrylamide]
0.098 | 0.089 | 63 | 50 | 0.072 | 0.037 | 0.17 | 0.138 | 0.043 | 0.044 | C=CC(=O)N1CCCC(Nc2ccnc(C(=O)Nc3ccc(-c4cc5c(N6CCOCC6)ncnc5[nH]4)cc3)c2)C1 (stereo not shown) [Compound B0700-302, 4-((1-acryloylpiperidin-3-yl)amino)-N-(4-(4-morpholino-7H-pyrrolo[2,3-d]pyrimidin-6-yl)phenyl)picolinamide]
> 5 | > 5 | > 5000 | > 5000 | > 5 | > 5 | > 5 | > 5 | > 5 | > 5 | C=CC(=O)N[C@@H]1CCCN(Cc2ccnc(C(=O)NC3CCN(c4nc5c(N6CCOCC6)ncnc5[nH]4)CC3)c2)C1 [Compound B0700-308, (R)-4-((3-acrylamidopiperidin-1-yl)methyl)-N-(1-(6-morpholino-9H-purin-8-yl)piperidin-4-yl)picolinamide]
0.646 | 0.38 | 631 | 447 | 1.62 | 1.05 | 4.68 | 1 | 1.05 | 0.813 | C=CC(=O)N1CC(N2CCC(NC(=O)Nc3ccc(-c4cc5c(N6CCOCC6)ncnc5[nH]4)cc3)CC2)C1 [Compound B0700-330, 1-(1-(1-acryloylazetidin-3-yl)piperidin-4-yl)-3-(4-(4-morpholino-7H-pyrrolo[2,3-d]pyrimidin-6-yl)phenyl)urea]
0.085 | 0.069 | 56 | 44 | 0.105 | 0.026 | 0.263 | 0.191 | 0.066 | 0.028 | C=CC(=O)N(C)[C@@H]1CCCN(Cc2ccnc(C(=O)Nc3ccc(-c4cc5c(N6CCOCC6)ncnc5[nH]4)cc3)c2)C1 [Compound B0700-301, (R)-4-((3-(N-methylacrylamido)piperidin-1-yl)methyl)-N-(4-(4-morpholino-7H-pyrrolo[2,3-d]pyrimidin-6-yl)phenyl)picolinamide]
> 5 | > 5 | > 5000 | > 5000 | > 5 | > 5 | > 5 | > 5 | > 5 | > 5 | C=CC(=O)Nc1ccc(CC(=O)NC2CCN(c3nc4c(N5CCOCC5)ncnc4[nH]3)CC2)cc1 [Compound B0700-315, N-(4-(2-((1-(6-morpholino-9H-purin-8-yl)piperidin-4-yl)amino)-2-oxoethyl)phenyl)acrylamide]
0.047 | 0.034 | 55 | 30 | 0.347 | 0.065 | 0.676 | 0.129 | 0.251 | 0.115 | C=CC(=O)N1CC(N2CCC(CC(=O)Nc3ccc(-c4cc5c(N6CCOCC6)ncnc5[nH]4)cc3)CC2)C1 [Compound B0700-331, 2-(1-(1-acryloylazetidin-3-yl)piperidin-4-yl)-N-(4-(4-morpholino-7H-pyrrolo[2,3-d]pyrimidin-6-yl)phenyl)acetamide]
1.62 | 1 | 2340 | 537 | > 5 | > 5 | > 5 | > 5 | > 5 | 1.95 | O=C(/C=C/CN1CC(F)C1)Nc1ccc(CC(=O)Nc2ccc(-c3cc4c(N5CCOCC5)ncnc4[nH]3)cc2)cc1 [Compound B0700-312, (E)-4-(3-fluoroazetidin-1-yl)-N-(4-(2-((4-(4-morpholino-7H-pyrrolo[2,3-d]pyrimidin-6-yl)phenyl)amino)-2-oxoethyl)phenyl)but-2-enamide]
0.051 | 0.05 | 49 | 34 | 0.043 | 0.022 | 0.085 | 0.028 | 0.076 | 0.05 | C=CC(=O)N1CCN(CCc2ccnc(C(=O)Nc3ccc(-c4cc5c(N6CCOCC6)ncnc5[nH]4)cc3)c2)CC1 [Compound B0700-303, 4-(2-(4-acryloylpiperazin-1-yl)ethyl)-N-(4-(4-morpholino-7H-pyrrolo[2,3-d]pyrimidin-6-yl)phenyl)picolinamide]
0.38 | 0.151 | 324 | 316 | 1.2 | 0.457 | 1.86 | 1.66 | 0.955 | 0.24 | C=CC(=O)N1CC(N2CCC[C@H](NC(=O)Nc3ccc(-c4cc5c(N6CCOCC6)ncnc5[nH]4)cc3)C2)C1 [Compound B0700-332, (S)-1-(1-(1-acryloylazetidin-3-yl)piperidin-3-yl)-3-(4-(4-morpholino-7H-pyrrolo[2,3-d]pyrimidin-6-yl)phenyl)urea]
